# From paper PMC5979327 (International Journal of Molecular Sciences, 2018)
# Columns and labels:
# [1] = biological target: T1, guinea pig H3 receptor (jejunum) (Cavia porcellus, UniProt Q9JI35); test: H3 antagonistic activity against H3 agonist-induced inhibition of the electrically evoked contraction of the guinea pig jejunum; format: biochemical; conditions: vs (R)-α-methylhistamine, Schild plot, dihydrogenoxolate salts, read-out: pA2 (sem) (converted)
# T1 construct: Whole jejunum segments (2 cm) were prepared and mounted between two platinum electrodes; from tissue; host or cells: guinea pig jejunum (small intestine)
# T1 sequence (Q9JI35 whole entry): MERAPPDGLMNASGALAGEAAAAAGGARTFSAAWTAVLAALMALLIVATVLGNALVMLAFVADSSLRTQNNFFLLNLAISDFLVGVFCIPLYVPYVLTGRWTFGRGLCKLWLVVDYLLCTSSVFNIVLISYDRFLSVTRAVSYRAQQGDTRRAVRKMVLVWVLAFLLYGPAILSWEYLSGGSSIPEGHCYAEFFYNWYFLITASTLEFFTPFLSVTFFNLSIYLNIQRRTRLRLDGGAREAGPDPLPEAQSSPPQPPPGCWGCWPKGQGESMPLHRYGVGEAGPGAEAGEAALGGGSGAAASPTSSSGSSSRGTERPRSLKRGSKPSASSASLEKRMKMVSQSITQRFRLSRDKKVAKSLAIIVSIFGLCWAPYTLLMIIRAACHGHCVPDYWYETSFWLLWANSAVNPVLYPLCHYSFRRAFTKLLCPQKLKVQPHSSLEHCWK
# Protocol: All newly synthesized compounds were converted into their dihydrogenoxolates salts and in vitro evaluated as H3 receptor antagonists against H3 agonist-induced inhibition of the electrically evoked contraction of the guinea pig jejunum.
# In the first step, all the obtained compounds were tested for their H3 antagonistic effects in vitro, following standard methods, using the electrically contracting guinea pig jejunum.
# Male guinea pigs weighing 300–400 g were sacrificed, and a portion of the small intestine, 20–50 cm proximal to the ileocaecal valve (jejunum), was removed and placed in Krebs buffer (composition (mM) NaCl 118; KCl 5.6; MgSO4 1.18; CaCl2 2.5; NaH2PO4 1.28; NaHCO3 25; glucose 5.5; indomethacin (1 × 10^ℒ6mol/L)). Whole jejunum segments (2 cm) were prepared and mounted between two platinum electrodes (4 mm apart) in 20 mL Krebs buffer, continuously gassed with 95% O2:5% CO2, and maintained at 37 °C. the contractions were recorded isotonically under 1.0 g tension with a Hugo Sachs Hebel–Messvorsatz (Tl-2)/HF-modem (Hugo Sachs Elektronik, Hugstetten, Germany) connected to a pen recorder. The equilibration lasted for one hour with washings every 10 min. The muscle segments were then stimulated at a maximum between 15 and 20 Volts, continuously at a frequency of 0.1 Hz for a duration of 0.5 msec, with rectangular wave electrical pulses, delivered by a Grass Stimulator S-88 (Grass Instruments Co., Quincy, MA, USA). […] The antagonists were preincubated for 20 min during the stimulation, before the preparation were challenged with (R)-α-methylhistamine. Antagonist potency was determined by the construction of a Schild plot, using three different concentrations of the antagonist. The potency of an antagonist is expressed by its pA2 value. The pA2 values were compared with those indicating the potency of thioperamide.
# [2] = compared with Ciproxifan; cited from earlier work
# [3] = system: cerebral amine neurotransmitter concentrations; test: Post-mortem brain tissue concentration of histamine, noradrenaline, dopamine and serotonin; format: in vivo, rat; conditions: rats, 3 mg/kg s.c. for 5 days; for histamine concentration in the hypothalamus: not statistically significant
# Protocol: (§1) Following the behavioral study, the rats were sacrificed, and their brains were collected. From each brain, the cerebral cortex and hypothalamus were quickly dissected according to the Glowinski and Iversen method. The samples were immediately frozen in liquid nitrogen and kept at −70 °C until assayed.
# The amine concentrations were expressed as ng/g wet weight (HA) or nmol/g wet weight (DA, NA, 5-HT).
# MAO-A = test: Post-mortem cerebral MAO-A activity of treated rats (radioassay); format: in vivo, rat; conditions: cerebral cortex, s.c. 3 mg/kg/daily for 5 days, means ± SEM
# Protocol: as §1
# (§2) Monoamine oxidase A and B (EC 1.4.3.4; MAO A and B) activities were estimated in cerebral homogenates with radioassays, using serotonin (fine conc. 200 μM) and β-phenylethylamine (fine conc. 20 μM), as well as specific inhibitors—clorgyline and deprenyl (0.3 μM each), respectively.
# (§3) The enzyme activities are expressed as pmol/min/mg protein. Protein concentration was analyzed according to Lowry’s method.
# [4] = system: histamine N-methyltransferase (HNMT); test: Post-mortem cerebral histamine N-methyltransferase activity of treated rats (radioenzymatic); format: in vivo, rat; conditions: s.c. 3 mg/kg/daily for 5 days, means ± SEM; for HMNT activity, CTX: cerebral cortex; for HMNT activity, HTH: hypothalamus
# MAO-B = test: Post-mortem cerebral MAO-B activity of treated rats (radioassay); format: in vivo, rat; conditions: cerebral cortex, s.c. 3 mg/kg/daily for 5 days, means ± SEM
# Protocol: as §1, §2, §3
# rats = test: Feeding behavior of rats after repeated subcutaneous administration; format: in vivo, rat; conditions: 3 mg/kg s.c. for 5 days; for amount of consumed food (food intake): versus pre-treatment period
# Description: Finally, compound ADS-003 (1a) was subjected to an in vivo evaluation of its impact on brain neurotransmitter systems. This assessment concerned: • - The effects of the compound on the feeding behavior of rats after its repeated peripheral administration. […] The latter was accomplished by postmortem analyses of the brain tissues of the treated rats.
# All animal experimental procedures were in accordance with EU directives and local ethical regulations. Male Wistar rats (260–300 g) were used. The animals were maintained under standard laboratory conditions (liquid and food available ad libitum, 12 h light–dark cycle). For feeding behavior examination, the rats were placed individually in metabolic cages (TecniplastGazzada, Buguggiate, Italy) and kept there throughout the entire test. Pharmacotherapy was preceded by a control period of 4 days aimed to determine the basal feed and water consumptions as well as urine excretion. The rats (n = 8 per group) were randomly given the H3R antagonists ADS-003 or Ciproxifan, the latter serving as a reference compound [40]. Control rats were treated with an equivalent volume of physiological saline. The compounds, dissolved in distilled water with DMSO (7%, v/v), were administered subcutaneously at a dose of 3 mg/kg of body mass for 5 consecutive days, always during the morning hours, following the record of feeding parameters. The dose of ADS-003 had been determined on the basis of a thorough characterization in vitro. The recorded volumes of consumed food are expressed in g or ml per 100 g of body weight or in ml per 24 h, respectively. The final results are given as means, with SEM calculated for each 24 h period, computed from a four-day (before treatment) or a five-day (treatment) monitoring
# [5] = biological target: T2, rat histamine H3 receptor (rH3R) (Rattus norvegicus, UniProt Q9QYN8); test: [3H]-Nα-methylhistamine binding (saturation and displacement) to rat H3R in HEK-293T cell membranes
# T2 construct: expressed in transfected cells; host or cells: HEK293T, transient PEI transfection with pcDNA3-rH3R; crude membranes
# T2 sequence (Q9QYN8 whole entry): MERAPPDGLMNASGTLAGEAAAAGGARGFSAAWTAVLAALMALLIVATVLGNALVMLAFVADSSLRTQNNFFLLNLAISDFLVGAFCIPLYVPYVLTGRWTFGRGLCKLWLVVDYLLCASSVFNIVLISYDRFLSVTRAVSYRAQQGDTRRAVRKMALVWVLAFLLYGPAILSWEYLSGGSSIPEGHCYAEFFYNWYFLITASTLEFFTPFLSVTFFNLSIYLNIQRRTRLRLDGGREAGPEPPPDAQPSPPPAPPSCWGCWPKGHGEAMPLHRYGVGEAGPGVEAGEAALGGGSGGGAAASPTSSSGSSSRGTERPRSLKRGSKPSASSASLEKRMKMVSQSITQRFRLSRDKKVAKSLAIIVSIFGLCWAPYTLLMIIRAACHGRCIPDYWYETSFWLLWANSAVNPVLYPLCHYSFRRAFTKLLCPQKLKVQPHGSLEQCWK
# [6] = biological target: T3, human histamine H3 receptor (hH3R) (Homo sapiens, UniProt Q9Y5N1); test: biochemical; format: binding
# T3 construct: expressed in transfected cells; host or cells: HEK293T, transient PEI transfection with pcDNA3.1-hH3R; crude membranes
# T3 sequence (Q9Y5N1 whole entry): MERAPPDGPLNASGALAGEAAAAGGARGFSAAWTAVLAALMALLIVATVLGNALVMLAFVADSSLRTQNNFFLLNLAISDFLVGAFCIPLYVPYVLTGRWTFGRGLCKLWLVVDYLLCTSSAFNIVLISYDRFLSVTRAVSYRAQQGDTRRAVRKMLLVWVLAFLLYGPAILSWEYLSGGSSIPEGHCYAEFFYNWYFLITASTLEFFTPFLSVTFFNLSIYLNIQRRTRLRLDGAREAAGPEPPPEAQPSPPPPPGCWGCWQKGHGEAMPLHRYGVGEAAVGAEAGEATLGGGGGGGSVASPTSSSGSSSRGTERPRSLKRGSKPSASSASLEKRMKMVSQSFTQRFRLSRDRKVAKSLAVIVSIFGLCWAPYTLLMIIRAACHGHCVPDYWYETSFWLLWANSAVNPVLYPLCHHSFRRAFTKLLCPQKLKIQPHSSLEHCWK
# H1-receptor = biological target: T4, H1-receptor (Cavia porcellus, UniProt P31389); test: H1 antagonistic effects in vitro, guinea pig ileum, histamine as competing agonist; format: biochemical; conditions: read-out: pA2 (H1 antagonistic activity) (converted)
# T4 construct: from tissue; host or cells: guinea pig ileum
# T4 sequence (P31389 whole entry): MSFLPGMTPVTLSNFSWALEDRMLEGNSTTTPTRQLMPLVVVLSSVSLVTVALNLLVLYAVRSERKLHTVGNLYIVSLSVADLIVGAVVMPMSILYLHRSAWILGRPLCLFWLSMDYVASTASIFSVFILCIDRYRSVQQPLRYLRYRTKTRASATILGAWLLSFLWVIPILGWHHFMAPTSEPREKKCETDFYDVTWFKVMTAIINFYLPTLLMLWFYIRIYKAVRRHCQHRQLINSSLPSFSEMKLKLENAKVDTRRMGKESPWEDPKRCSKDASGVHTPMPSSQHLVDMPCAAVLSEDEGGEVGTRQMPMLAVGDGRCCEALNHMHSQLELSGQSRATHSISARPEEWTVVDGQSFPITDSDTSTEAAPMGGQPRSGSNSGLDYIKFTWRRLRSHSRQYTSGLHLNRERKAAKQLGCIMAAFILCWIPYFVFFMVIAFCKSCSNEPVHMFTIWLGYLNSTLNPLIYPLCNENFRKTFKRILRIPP
# Protocol: The pA2 values were calculated according to Arunlakshana and Schild [34].
smiles,measurement,setting,value
"CCCN(C)CCCCCOCCCN(C)CCCc1cc2ccccc2o1 [2c, 5-{3-{[3-(Benzofuran-2-yl)propyl](methyl)amino}propoxy}-N-methyl-N-propylpentan-1-amine]",Kb,[1],427 nM
S=C(NC1CCCCC1)N1CCC(c2cnc[nH]2)CC1 [Thioperamide],bioavailability / brain penetration,[2],lower bioavailability
CCCN(C)CCCCCOC1CCN(Cc2cc3ccccc3o2)CC1 [1a],histamine levels in the cerebral cortex,[3],no changes
same,noradrenaline levels in the cerebral cortex,[3],enhanced
same,histamine concentration in the hypothalamus,[3],tendency to increase
same,"MAO-A activity, CTX",MAO-A,1536 ± 50 pmol/min/mg Protein
same,"HMNT activity, CTX",[4],44.41 ± 1.06 pmol/min/mg Protein
same,"HMNT activity, HTH",[4],41.09 ± 0.80 pmol/min/mg Protein
same,Kb,[1],5.37 nM
same,"MAO-B activity, CTX",MAO-B,1065 ± 48 pmol/min/mg Protein
same,crossing of the blood–brain barrier (suggested by the food intake results),rats,crosses the BBB
same,amount of consumed food (food intake),rats,statistically significant reduction
same,Ki,[5],12.6 nM
same,Ki,[6],251 nM
"O=C(c1ccc(OCCCc2cnc[nH]2)cc1)C1CC1 [Ciproxifan, reference compound]",histamine levels in the cerebral cortex,[3],no changes
same,noradrenaline levels in the cerebral cortex,[3],enhanced
same,histamine concentration in the hypothalamus,[3],tendency to increase
same,"MAO-A activity, CTX",MAO-A,1654 ± 31 pmol/min/mg Protein
same,"HMNT activity, CTX",[4],46.90 ± 3.59 pmol/min/mg Protein
same,"HMNT activity, HTH",[4],51.76 ± 5.67 pmol/min/mg Protein
same,"MAO-B activity, CTX",MAO-B,1049 ± 56 pmol/min/mg Protein
same,amount of consumed food (food intake),rats,statistically significant reduction
"CCCN(C)CCCCCOC1CCN(CCCc2ccccc2)CC1 [1f, N-Methyl-5-{[1-(3-phenylpropyl)piperidin-4-yl]oxy}-N-propylpentan-1-amine]",Kb,[1],30.9 nM
same,Kb,H1-receptor,> 100000 nM
"CCCN(C)CCCCCOCCCN(C)CCc1cc2ccccc2o1 [2b, 5-{3-{[2-(Benzofuran-2-yl)ethyl](methyl)amino}propoxy}-N-methyl-N-propylpentan-1-amine]",Kb,[1],479 nM
"CCCN(C)CCCCCOC1CCN(CCc2cc3ccccc3o2)CC1 [1b, 5-{{1-[2-(1-Benzofuran-2-yl)ethyl]piperidin-4-yl}oxy}-N-methyl-N-propylpentan-1-amine]",Kb,[1],55 nM
same,Kb,H1-receptor,> 100000 nM
"CCCN(C)CCCCCOCCCN(C)CCc1ccccc1 [2e, N-Methyl-5-{3-[methyl(phenethyl)amino]propoxy}-N-propylpentan-1-amine]",Kb,[1],191 nM
"CCCN(C)CCCCCOCCCN(C)CCCc1ccccc1 [2f, N-Methyl-5-(3-(methyl(3-phenylpropyl)amino)propoxy)-N-propylpentan-1-amine]",Kb,[1],162 nM
"CCCN(C)CCCCCOC1CCN(CCc2ccccc2)CC1 [1e, N-Methyl-5-[(1-phenethylpiperidin-4-yl)oxy]-N-propylpentan-1-amine]",Kb,[1],214 nM
"CCCN(C)CCCCCOC1CCN(CCCc2cc3ccccc3o2)CC1 [1c, 5-{{1-[3-(1-Benzofuran-2-yl)propyl]piperidin-4-yl}oxy}-N-methyl-N-propylpentan-1-amine]",Kb,[1],77.6 nM
"CNCCc1cnc[nH]1 [[^3H]-N^α-MH, [^3H]-N^α-methylhistamine, reference compound]",Kd,"[5]; rH3R, HEK-293T membranes",2.72 ± 0.34 nM
same,Kd,[6]; read-out: KD (saturation binding),0.9 ± 0.08 nM
